From ChEMBL document CHEMBL5291721, “A preclinical secondary pharmacology resource illuminates target-adverse drug reaction associations of marketed drugs” (Nat Commun, 2023)
Blank lines part the entries; values can stand above or below the molecule they belong to.

Legend:
Androgen receptor = target: T1, Androgen receptor (Rattus norvegicus, UniProt P15207); format: functional
T1 sequence (P15207 whole entry): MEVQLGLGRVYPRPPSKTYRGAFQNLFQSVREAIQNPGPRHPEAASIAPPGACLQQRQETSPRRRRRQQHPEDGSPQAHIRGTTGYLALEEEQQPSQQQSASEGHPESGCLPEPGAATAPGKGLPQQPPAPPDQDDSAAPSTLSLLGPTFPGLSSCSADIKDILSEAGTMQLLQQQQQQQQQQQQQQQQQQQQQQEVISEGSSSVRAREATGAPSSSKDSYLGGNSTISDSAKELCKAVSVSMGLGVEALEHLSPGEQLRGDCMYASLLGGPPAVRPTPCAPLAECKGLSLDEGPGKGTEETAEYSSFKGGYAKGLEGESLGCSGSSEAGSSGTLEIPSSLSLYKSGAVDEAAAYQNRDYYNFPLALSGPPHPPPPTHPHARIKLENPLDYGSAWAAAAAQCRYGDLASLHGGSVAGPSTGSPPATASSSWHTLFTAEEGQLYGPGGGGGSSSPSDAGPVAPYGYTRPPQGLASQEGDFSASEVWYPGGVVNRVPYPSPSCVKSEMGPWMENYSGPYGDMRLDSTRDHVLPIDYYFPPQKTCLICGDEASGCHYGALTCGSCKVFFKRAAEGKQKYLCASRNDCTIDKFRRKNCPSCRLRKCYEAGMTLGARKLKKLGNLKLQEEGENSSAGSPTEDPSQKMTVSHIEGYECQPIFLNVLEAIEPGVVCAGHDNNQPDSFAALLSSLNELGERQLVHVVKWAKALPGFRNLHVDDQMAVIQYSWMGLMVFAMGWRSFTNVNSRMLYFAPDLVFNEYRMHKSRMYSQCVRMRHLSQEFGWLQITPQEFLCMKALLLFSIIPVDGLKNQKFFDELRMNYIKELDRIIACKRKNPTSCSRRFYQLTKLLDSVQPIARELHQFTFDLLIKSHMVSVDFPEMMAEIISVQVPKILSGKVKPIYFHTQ

D(1B) dopamine receptor = D(1B) dopamine receptor (Homo sapiens, UniProt P21918)
Sequence of D(1B) dopamine receptor (P21918 whole entry): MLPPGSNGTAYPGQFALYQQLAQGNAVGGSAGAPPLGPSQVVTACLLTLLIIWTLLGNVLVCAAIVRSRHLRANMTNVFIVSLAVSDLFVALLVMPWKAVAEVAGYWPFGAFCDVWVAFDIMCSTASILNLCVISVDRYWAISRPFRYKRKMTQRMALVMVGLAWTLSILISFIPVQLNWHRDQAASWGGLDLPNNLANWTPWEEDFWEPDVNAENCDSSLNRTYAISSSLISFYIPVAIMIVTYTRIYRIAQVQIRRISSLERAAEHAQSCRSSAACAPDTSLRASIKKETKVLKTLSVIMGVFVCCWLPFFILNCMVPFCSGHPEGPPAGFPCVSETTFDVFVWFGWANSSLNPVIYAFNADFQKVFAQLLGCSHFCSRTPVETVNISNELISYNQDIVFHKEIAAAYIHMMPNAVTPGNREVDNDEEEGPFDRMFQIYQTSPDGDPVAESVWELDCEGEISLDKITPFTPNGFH

[1] = target: T2, Muscarinic acetylcholine receptor M4 (Homo sapiens, UniProt P08173)
T2 sequence (P08173 whole entry): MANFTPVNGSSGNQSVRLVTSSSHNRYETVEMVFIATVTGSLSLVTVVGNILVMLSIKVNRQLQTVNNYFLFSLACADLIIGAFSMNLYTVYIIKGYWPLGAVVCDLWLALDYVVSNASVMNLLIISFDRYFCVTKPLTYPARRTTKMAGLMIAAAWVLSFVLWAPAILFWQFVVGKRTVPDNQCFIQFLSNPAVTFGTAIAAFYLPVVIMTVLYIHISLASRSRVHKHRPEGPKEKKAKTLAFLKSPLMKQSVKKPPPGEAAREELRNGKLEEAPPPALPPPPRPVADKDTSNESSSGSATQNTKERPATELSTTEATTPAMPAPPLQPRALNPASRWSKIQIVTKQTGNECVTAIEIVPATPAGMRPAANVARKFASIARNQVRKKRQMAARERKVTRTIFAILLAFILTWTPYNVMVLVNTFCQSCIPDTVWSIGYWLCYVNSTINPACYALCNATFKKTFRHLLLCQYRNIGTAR

Bile acid receptor [2] = target: T3, Bile acid receptor (Homo sapiens, UniProt Q96RI1); format: functional
T3 sequence (Q96RI1 whole entry): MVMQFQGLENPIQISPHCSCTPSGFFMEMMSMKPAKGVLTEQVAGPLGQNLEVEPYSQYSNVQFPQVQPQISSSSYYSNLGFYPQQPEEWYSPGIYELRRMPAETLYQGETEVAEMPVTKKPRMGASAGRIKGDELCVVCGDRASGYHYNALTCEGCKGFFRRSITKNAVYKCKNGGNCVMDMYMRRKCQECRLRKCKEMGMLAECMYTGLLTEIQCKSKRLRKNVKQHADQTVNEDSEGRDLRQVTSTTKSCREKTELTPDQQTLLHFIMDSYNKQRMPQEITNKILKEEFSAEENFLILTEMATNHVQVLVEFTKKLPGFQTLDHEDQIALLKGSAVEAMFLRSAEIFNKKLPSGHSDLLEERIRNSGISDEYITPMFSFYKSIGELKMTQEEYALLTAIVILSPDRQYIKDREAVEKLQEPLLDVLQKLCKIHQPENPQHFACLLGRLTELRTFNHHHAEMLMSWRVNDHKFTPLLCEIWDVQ

[3] = target: T4, Retinoic acid receptor beta (Homo sapiens, UniProt P10826); format: functional, cell-based
T4 sequence (P10826 whole entry): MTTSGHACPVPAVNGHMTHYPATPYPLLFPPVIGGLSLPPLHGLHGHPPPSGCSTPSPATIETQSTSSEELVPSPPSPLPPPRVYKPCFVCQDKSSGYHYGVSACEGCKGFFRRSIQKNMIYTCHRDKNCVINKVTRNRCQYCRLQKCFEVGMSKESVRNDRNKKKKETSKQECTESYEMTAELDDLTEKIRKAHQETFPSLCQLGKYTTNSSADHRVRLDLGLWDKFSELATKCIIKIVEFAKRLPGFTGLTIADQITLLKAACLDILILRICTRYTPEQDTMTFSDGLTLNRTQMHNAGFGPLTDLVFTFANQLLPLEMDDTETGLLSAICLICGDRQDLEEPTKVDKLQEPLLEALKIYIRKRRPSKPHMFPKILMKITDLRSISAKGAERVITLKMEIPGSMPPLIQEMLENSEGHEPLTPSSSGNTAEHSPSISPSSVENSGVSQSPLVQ

[4] = target: T5, Oxysterols receptor LXR-beta (Homo sapiens, UniProt P55055); format: functional
T5 sequence (P55055 whole entry): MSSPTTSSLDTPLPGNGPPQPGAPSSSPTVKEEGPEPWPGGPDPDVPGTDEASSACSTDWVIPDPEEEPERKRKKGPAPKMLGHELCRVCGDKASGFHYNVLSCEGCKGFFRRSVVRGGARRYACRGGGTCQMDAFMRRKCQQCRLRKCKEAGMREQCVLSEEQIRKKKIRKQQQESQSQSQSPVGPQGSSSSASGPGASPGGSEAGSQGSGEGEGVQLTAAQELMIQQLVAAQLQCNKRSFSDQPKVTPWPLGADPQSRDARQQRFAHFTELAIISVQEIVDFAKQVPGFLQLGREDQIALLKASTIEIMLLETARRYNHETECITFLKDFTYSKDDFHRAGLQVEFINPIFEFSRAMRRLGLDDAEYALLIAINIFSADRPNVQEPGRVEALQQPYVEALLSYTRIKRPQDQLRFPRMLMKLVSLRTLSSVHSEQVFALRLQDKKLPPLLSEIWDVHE

Bile acid receptor [5] = target: T3, Bile acid receptor; format: functional; remark: listed apart in the source
Note: assay procedure not described here.

AC50 (Androgen receptor): > 30 µM
SMILES: CCN(CC)CCn1c(=O)c(Cc2ccc(OC)cc2)nc2ccccc21 [CAROVERINE]

SMILES: CCOC(=O)[C@H](CCc1ccccc1)N[C@@H](C)C(=O)N1Cc2ccccc2C[C@H]1C(=O)O
AC50 (D(1B) dopamine receptor): > 10 µM | AC50 [1]: > 10 µM

AC50 (Bile acid receptor [2]): > 30 µM | AC50 [3]: > 30 µM | AC50 [4]: > 30 µM | AC50 (Bile acid receptor [5]): 16 µM
SMILES: CC(C)/N=c1\cc2n(-c3ccc(Cl)cc3)c3ccccc3nc-2cc1Nc1ccc(Cl)cc1 [CLOFAZIMINE]
